According to patent US6013651A, “Meta-azacyclic amino benzoic acid compounds and derivatives thereof” (G. D. Searle & Co., priority 1998, dated 2000):
Counter-ions that a name gives are not always drawn. Like-named read-outs stand apart in the source and are kept apart here.

Experiments:
[1] = biological target: T1, human vitronectin receptor (αv β3) (Homo sapiens, UniProt P05106+P06756); assay: Vitronectin adhesion assay, solid phase receptor assay (inhibition of biotinylated vitronectin binding to purified αvβ3)
T1 construct: purified from human placenta; from tissue; host or cells: human placenta
T1 sequence (P06756 31-889 limits assumed): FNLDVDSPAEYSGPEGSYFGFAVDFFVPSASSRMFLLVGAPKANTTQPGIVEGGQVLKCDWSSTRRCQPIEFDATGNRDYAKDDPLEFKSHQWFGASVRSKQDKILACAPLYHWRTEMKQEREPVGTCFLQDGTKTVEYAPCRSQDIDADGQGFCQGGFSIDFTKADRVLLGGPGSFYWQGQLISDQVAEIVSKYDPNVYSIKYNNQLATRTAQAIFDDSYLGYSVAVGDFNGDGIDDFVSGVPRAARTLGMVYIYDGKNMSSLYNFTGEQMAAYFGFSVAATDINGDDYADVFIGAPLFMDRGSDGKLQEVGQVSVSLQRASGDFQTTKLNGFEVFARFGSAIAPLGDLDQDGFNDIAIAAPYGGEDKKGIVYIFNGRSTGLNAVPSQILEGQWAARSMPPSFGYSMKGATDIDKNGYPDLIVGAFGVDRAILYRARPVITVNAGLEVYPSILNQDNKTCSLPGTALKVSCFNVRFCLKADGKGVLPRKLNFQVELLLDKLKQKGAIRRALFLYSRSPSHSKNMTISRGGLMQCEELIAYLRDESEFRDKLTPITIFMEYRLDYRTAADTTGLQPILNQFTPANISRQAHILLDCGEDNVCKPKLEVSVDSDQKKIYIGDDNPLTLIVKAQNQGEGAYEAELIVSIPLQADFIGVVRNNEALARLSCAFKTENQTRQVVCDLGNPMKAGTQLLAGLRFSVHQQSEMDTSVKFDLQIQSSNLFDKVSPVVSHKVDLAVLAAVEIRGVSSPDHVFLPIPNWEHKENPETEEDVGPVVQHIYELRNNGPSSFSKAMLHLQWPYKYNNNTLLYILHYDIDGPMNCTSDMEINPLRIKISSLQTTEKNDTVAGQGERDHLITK
T1 sequence (P06756 891-1048 limits assumed): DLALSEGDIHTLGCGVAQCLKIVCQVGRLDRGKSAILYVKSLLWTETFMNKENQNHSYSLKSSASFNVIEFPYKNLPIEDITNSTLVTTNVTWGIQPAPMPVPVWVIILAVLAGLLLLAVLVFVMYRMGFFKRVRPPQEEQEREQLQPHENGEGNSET
T1 sequence (P05106 27-788): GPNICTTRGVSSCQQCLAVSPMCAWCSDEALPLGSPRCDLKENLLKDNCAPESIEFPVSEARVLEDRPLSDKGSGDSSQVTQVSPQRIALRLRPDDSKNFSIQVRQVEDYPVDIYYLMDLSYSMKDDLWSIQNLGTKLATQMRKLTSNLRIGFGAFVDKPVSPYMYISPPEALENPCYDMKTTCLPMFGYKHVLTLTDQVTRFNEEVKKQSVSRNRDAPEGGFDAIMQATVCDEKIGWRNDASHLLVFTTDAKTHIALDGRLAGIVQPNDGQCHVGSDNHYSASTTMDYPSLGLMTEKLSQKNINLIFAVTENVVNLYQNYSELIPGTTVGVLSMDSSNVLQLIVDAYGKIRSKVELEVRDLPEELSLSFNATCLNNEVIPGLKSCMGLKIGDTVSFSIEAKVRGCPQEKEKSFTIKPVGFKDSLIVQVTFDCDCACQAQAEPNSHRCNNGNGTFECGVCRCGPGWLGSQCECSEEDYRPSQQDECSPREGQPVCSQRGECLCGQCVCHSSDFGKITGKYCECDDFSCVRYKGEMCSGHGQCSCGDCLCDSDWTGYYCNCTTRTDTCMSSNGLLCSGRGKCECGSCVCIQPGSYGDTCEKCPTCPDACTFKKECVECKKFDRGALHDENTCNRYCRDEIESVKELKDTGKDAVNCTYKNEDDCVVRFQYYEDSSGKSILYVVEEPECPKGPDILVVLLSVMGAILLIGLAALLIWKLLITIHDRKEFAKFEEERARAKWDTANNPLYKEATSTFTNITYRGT
Protocol: Human vitronectin receptor (αv β3) was purified from human placenta as previously described [Pytela et al., Methods in Enzymology, 144:475-489 (1987)]. Human vitronectin was purified from fresh frozen plasma as previously described [Yatohgo et al., Cell Structure and Function, 13:281-292 (1988)]. Biotinylated human vitronectin was prepared by coupling NHS-biotin from Pierce Chemical Company (Rockford, Ill.) to purified vitronectin as previously described [Charo et al., J. Biol. Chem., 266(3):1415-1421 (1991)]. Assay buffer, OPD substrate tablets, and RIA grade BSA were obtained from Sigma (St. Louis, Mo.). Anti-biotin antibody was obtained from Calbiochem (La Jolla, Calif.). Linbro microtiter plates were obtained from Flow Labs (McLean, Va.). ADP reagent was obtained from Sigma (St. Louis, Mo.).
This assay was essentially the same as previously reported [Niiya et al., Blood, 70:475-483 (1987)]. The purified human vitronectin receptor (αv β3) was diluted from stock solutions to […] in tris-buffered saline containing 1.0 mM Ca^++, Mg^++, and Mn^++, pH 7.4 (TBS^+++). The diluted receptor was immediately transferred to Linbro microtiter plates at 100 µL/well (100 ng receptor/well). The plates were sealed and incubated overnight at 4° C. to allow the receptor to bind to the wells. All remaining steps were at room temperature. The assay plates were emptied and 200 µL of 1% RIA grade BSA in TBS^+++ (TBS^+++ /BSA) were added to block exposed plastic surfaces. Following a 2 hour incubation, the assay plates were washed with TBS^+++ using a 96 well plate washer. Logarithmic serial dilution of the test compound and controls were made starting at a stock concentration of 2 mM and using 2 nM biotinylated vitronectin in TBS^+++ /BSA as the diluent. This premixing of labeled ligand with test (or control) ligand, and subsequent transfer of 50 µL aliquots to the assay plate was carried out with a CETUS Propette robot; the final concentration of the labeled ligand was 1 nM and the highest concentration of test compound was 1.0×10^-4 M. The competition occurred for two hours after which all wells were washed with a plate washer as before. Affinity purified horseradish peroxidase labeled goat anti-biotin antibody was diluted 1:3000 in TBS^+++ /BSA and 125 µL were added to each well. After 30 minutes, the plates were washed and incubated with OPD/H2 O substrate in 100 mM/L Citrate buffer, pH 5.0. The plate was read with a microtiter plate reader at a wavelength of 450 nm and when the maximum-binding control wells reached an absoround bottomance of about 1.0, the final A450 were recorded for analysis. The data were analyzed using a macro written for use with the EXCEL spreadsheet program. The mean, standard deviation, and % CV were determined for duplicate concentrations. The mean A450 values were normalized to the mean of four maximum-binding controls (no competitor added)(B-MAX). The normalized values were subjected to a four parameter curve fit algorithm [Rodbard et al., Int.

[2] = biological target: T2, human fibrinogen receptor (αIIb β3) (Homo sapiens, UniProt P05106+P08514); assay: Purified IIb/IIIa receptor assay, solid phase receptor assay (inhibition of biotinylated vitronectin binding); settings: 1 nM biotinylated human vitronectin, pH 7.4, 2 h competition
T2 construct: purified from outdated platelets; from tissue; host or cells: outdated human platelets
T2 sequence (P08514 32-887 limits assumed): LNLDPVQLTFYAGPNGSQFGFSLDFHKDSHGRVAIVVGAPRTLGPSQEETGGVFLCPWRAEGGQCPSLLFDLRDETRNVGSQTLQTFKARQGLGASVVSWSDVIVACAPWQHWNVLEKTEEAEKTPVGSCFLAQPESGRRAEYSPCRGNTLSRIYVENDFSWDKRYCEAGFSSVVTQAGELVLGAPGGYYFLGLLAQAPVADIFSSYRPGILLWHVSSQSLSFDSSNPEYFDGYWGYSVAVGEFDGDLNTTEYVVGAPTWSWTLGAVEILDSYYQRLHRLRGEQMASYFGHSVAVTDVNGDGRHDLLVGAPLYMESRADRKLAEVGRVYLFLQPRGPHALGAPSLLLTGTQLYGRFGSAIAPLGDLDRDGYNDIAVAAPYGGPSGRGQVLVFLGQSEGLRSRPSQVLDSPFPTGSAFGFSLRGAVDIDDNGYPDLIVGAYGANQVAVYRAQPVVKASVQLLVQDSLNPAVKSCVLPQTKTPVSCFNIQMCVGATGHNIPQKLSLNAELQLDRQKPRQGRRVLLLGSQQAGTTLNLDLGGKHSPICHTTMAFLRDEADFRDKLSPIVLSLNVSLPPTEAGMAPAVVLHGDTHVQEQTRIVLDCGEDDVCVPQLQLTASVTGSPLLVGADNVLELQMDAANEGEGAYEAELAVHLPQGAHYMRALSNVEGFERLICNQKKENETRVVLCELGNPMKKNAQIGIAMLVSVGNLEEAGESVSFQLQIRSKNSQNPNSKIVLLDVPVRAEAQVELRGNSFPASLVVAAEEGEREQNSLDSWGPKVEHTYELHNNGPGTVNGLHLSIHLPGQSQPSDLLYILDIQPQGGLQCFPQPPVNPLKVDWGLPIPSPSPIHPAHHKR
T2 sequence (P08514 891-1039 limits assumed): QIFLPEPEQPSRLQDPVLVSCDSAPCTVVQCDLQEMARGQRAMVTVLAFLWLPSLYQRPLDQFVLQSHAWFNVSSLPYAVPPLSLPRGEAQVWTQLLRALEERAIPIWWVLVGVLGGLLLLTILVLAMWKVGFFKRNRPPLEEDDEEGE
T2 sequence (P05106 27-788): as the sequence (P05106 27-788) above
Text: Human fibrinogen receptor (αIIb β3) was purified from outdated platelets. (Pytela, R., Pierschbacher, M. D., Argraves, S., Suzuki, S., and Rouslahti, E. "Arginine-Glycine-Aspartic acid adhesion receptors", Methods in Enzymology 144(1987):475-489.) Human vitronectin was purified from fresh frozen plasma as described in Yatohgo, T., Izumi, M., Kashiwagi, H., and Hayashi, M., "Novel purification of vitronectin from human plasma by heparin affinity chromatography," Cell Structure and Function 13(1988):281-292. Biotinylated human vitronectin was prepared by coupling NHS-biotin from Pierce Chemical Company (Rockford, Il.) to purified vitronectin as previously described. (Charo, I. F., Nannizzi, L., Phillips, D. R., Hsu, M. A., Scaround bottomorough, R. M., "Inhibition of fibrinogen binding to GP IIIb/IIIa by a GP IIIa peptide", J. Biol. Chem. 266(3)(1991): 1415-1421.) Assay buffer, OPD substrate tablets, and RIA grade BSA were obtained from Sigma (St. Louis, Mo.). Anti-biotin antibody was obtained from Calbiochem (La Jolla, Calif.). Linbro microtiter plates were obtained from Flow Labs (McLean, Va.). ADP reagent was obtained from Sigma (St. Louis, Mo.).
This assay is essentially the same reported in Niiya, K., Hodson, E., Bader, R., Byers-Ward, V. Koziol, J. A., Plow, E. F. and Ruggeri, Z. M., "Increased surface expression of the membrane glycoprotein IIb/IIIa complex induced by platelet activation: Relationships to the binding of fibrinogen and platelet aggregation", Blood 70(1987):475-483. The purified human fibrinogen receptor (αIIb β3) was diluted from stock solutions to 1.0 μg/mL in Tris-buffered saline containing 1.0 mM Ca^++, Mg^++, and Mn^++, pH 7.4 (TBS^+++). The diluted receptor was immediately transferred to Linbro microtiter plates at 100 μL/well (100 ng receptor/well). The plates were sealed and incubated overnight at 4° C. to allow the receptor to bind to the wells. All remaining steps were at room temperature. The assay plates were emptied and 200 μL of 1% RIA grade BSA in TBS^+++ (TBS^+++ /BSA) were added to block exposed plastic surfaces. Following a 2 hour incubation, the assay plates were washed with TBS^+++ using a 96 well plate washer. Logarithmic serial dilution of the test compound and controls were made starting at a stock concentration of 2 mM and using 2 nM biotinylated vitronectin in TBS^+++ /BSA as the diluent. This premixing of labeled ligand with test (or control) ligand, and subsequent transfer of 50 μL aliquots to the assay plate was carried out with a CETUS Propette robot; the final concentration of the labeled ligand was 1 nM and the highest concentration of test compound was 1.0×10^-4 M. The competition occurred for two hours after which all wells were washed with a plate washer as before. Affinity purified horseradish peroxidase labeled goat anti-biotin antibody was diluted 1:3000 in TBS^+++ /BSA and 125 μL were added to each well. After 30 minutes, the plates were washed and incubated with […]/H2 O2 substrate in 100 mM/L citrate buffer, pH 5.0. The plate was read with a microtiter plate reader at a wavelength of 450 nm and when the maximum-binding control wells reached an absoround bottomance of about 1.0, the final A450 were recorded for analysis. The data were analyzed using a macro written for use with the EXCEL™ spreadsheet program. The mean, standard deviation, and % CV were determined for duplicate concentrations. The mean A450 values were normalized to the mean of four maximum-binding controls (no competitor added)(B-MAX). The normalized values were subjected to a four parameter curve fit algorithm, [Robard et al., Int.

[3] = 1 nM biotinylated human vitronectin, purified receptor, pH 7.4, 2 h competition, read-out: αv β3 IC50

SMILES | IC50 [1, 3] [nM] | IC50 [2] [nM] | IC50 ([1]; positive control included on each plate, read-out: αv β3 antagonist IC50 of positive control) [nM]
O=C(O)CC(NC(=O)CNC(=O)c1cc(O)cc(NC2=NCC(O)CN2)c1)c1cc(Br)cc(I)c1O (stereo not shown) [Example 3] | 23.7 | 2440 | –
O=C(O)CC(NC(=O)CNC(=O)c1cc(O)cc(NC2=NCC(O)CN2)c1)c1cc(Br)cc(Br)c1O (stereo not shown) [Example 6] | 6.46 | 919 | –
O=C(O)C[C@H](NC(=O)CNC(=O)c1cc(O)cc(NC2=NCC(O)CN2)c1)c1cc(Br)cc(Br)c1O (stereo partly shown) [Example 10] | 2.26 | 641 | –
O=C(O)C[C@H](NC(=O)CNC(=O)c1cc(O)cc(NC2=NCC(O)CN2)c1)c1cc(Br)cc(I)c1O (stereo partly shown) [Example 12] | 9.59 | 1060 | –
N=C(N)NCCCCC(=O)NCC(=O)NC(CC(=O)O)c1cccnc1 (stereo not drawn) [β-[[2-[[5-[(aminoiminomethyl)-amino]-1-oxopentyl]amino]-1-oxoethyl]amino]-3-pyridinepropanoic acid, reference compound] | – | – | 3 to 10

Further molecules by falling IC50 [1, 3], results first:

IC50 [1, 3] [nM] | IC50 [2] [nM] | IC50 ([1]; positive control included on each plate, read-out: αv β3 antagonist IC50 of positive control) [nM] | SMILES
2.13 | 744 | – | O=C(O)CC(NC(=O)CNC(=O)c1cc(O)cc(NC2=NCC(O)CN2)c1)c1cc(Cl)cc(I)c1O (stereo not shown) [Example 5]
2.02 | 575 | – | O=C(O)CC(NC(=O)CNC(=O)c1cc(O)cc(NC2=NCC(O)CN2)c1)c1cc(Br)cc(Cl)c1O (stereo not shown) [Example 4]
1.04 | 430 | – | O=C(O)CC(NC(=O)CNC(=O)c1cc(O)cc(NC2=NCC(O)CN2)c1)c1cc(Cl)cc(Cl)c1O (stereo not shown) [Example 2]
1.01 | 262 | – | O=C(O)C[C@H](NC(=O)CNC(=O)c1cc(O)cc(N=C2NCC(O)CN2)c1)c1cc(Br)cc(Cl)c1O (stereo partly shown) [Example 7]
0.88 | 310 | – | O=C(O)CC(NC(=O)CNC(=O)c1cc(O)cc(NC2=NCC(O)CN2)c1)c1cc(Cl)cc(Br)c1O (racemic) [Example 1, (±) 3-bromo-5-chloro-2-hydroxy-β-[[2-[[[3-hydroxy-5-[(1,4,5,6-tetrahydro-5-hydroxypyrimidin-2-yl)amino]phenyl]carbonyl]amino]acetyl]amino]benzenepropanoic acid, trifluroacetate salt]
0.82 | 226 | – | O=C(O)C[C@H](NC(=O)CNC(=O)c1cc(O)cc(NC2=NCC(O)CN2)c1)c1cc(Cl)cc(Br)c1O (stereo partly shown) [9 · HCl]
0.4 | 131 | – | O=C(O)C[C@H](NC(=O)CNC(=O)c1cc(O)cc(N=C2NCC(O)CN2)c1)c1cc(Cl)cc(Cl)c1O (stereo partly drawn) [Example 8, (S) 3,5-dichloro-2-hydroxy-β-[[2-[[[3-hydroxy-5-[(1,4,5,6-tetrahydro-5-hydroxypyrimidin-2-yl)amino]phenyl]carbonyl]amino]acetyl]amino]-benzenepropanoic acid, monohydrochloride monohydrate]
0.37 | 388 | – | O=C(O)C[C@H](NC(=O)CNC(=O)c1cc(O)cc(NC2=NCC(O)CN2)c1)c1cc(Cl)cc(Br)c1O (stereo partly drawn) [Example 9, (S) 3-bromo-5-chloro-2-hydroxy-β-[[2-[[[3-hydroxy-5-[(1,4,5,6-tetrahydro-5-hydroxypyrimidin-2-yl)amino]phenyl]carbonyl]amino]acetyl]amino]-benzenepropanoic acid, trifluoroacetate salt]
